Results on 35 molecules are retold here after a melting point compilation (Tetko et al.; mined from patent text by program, amines drawn as free bases though some values may be those of a salt).

`CCOC(=O)c1ccc(C(C)(C)C(N)=O)cc1` registered a melting point of 104 to 109 °C.
Molecule `CCOC(=O)COc1cc(OC)c2c(c1S(N)(=O)=O)OC1(CCCCC1)CC2=O` had a melting point of 188 to 190 °C.
The same measure for `O=c1oc(-c2ccc(Sc3ccccc3)cc2)cc(O)c1SCCc1ccccc1`: 120 to 121 °C; for `O=c1c(Cc2cccnc2)cn2c3c(cc(Cl)cc13)Oc1cc(Cl)ccc1-2`: 170 to 171 °C; for `c1cc2c3c(ccc(OCCCN4CCCCC4)c3c1)-c1cc(OCCCN3CCCCC3)ccc1-2`: 92 to 93 °C.
`O=c1[nH]c(C(F)(F)F)c(Br)c(=O)[nH]1` had a melting point of 236 to 240 °C.
To `CCOCc1nc2c(N)nc3ccc(OCc4ccccc4)cc3c2n1CC(C)(C)O` belongs 181 to 182 °C.
To `CN1C(C(=O)Nc2ccccn2)=C(O)c2sc3ccccc3c2S1(=O)=O` belongs 222 to 224 °C; to `CS(=O)(=O)c1ccc(-c2cnn(CC(F)(F)F)c(=O)c2-c2ccc(Cl)c(Cl)c2)cc1`, 197 to 198 °C; to `N#CCCNC(=O)c1n[nH]cc1NC(=O)c1ccccn1`, 223 to 224 °C.
`CC(C)c1cccc(C(C)C)c1NC(=O)NCC1(c2ccc(N(C)C)cc2)CCCC1`: the melting point was 132 to 133 °C.
The same measure for `CC(=O)Nc1cccc(Br)n1`: 157 °C.
The same measure for `CCN(CCNC(=O)c1cnc2cc(I)ccc2n1)CCNc1cccc(Br)n1`: 49 to 51 °C.
For `CCOC(=O)c1ccc(/C=C(\C)c2ccc3c(c2)OCCCC3)cc1`, the melting point was in the range of 71 to 72 °C.
The same measure for `COc1ccc(NC(=O)CC23CC4CC(CC(C4)C2)C3)c(C)c1`: 156 to 157 °C; for `CNC1=C([N+](=O)[O-])C(=O)NC1=Cc1ccccc1`: 238 °C.
The same measure for `CCC1CC2=CC(OC(=O)c3ccc([N+](=O)[O-])cc3)CCC2C2CCC3(C)C(O)CCC3C12` (stereo not given): 135 to 136 °C; for `CCn1c(=NC(C)=O)c(-c2c(Cl)cccc2Cl)cc2cnc(SC)nc21`: 175 to 177 °C; for `CCOc1ccc(-c2nc(-c3ccc(S)cc3C(=O)O)cs2)cc1OCC`: 283 to 285 °C.
The same measure for `CCOC(=O)N1CCN(c2nc(NC3CC3)ccc2F)CC1`: 68 to 70 °C.
In turn, `COc1ccc(CCNc2nc(NCc3cc(OC)cc(OC)c3)c3cccnc3n2)cc1` returned a melting point of 88 to 89 °C.
On to `CC(=O)n1ncc2cc(C)c([N+](=O)[O-])cc21`, for which the melting point lay in the range of 180 to 182 °C.
To `CC(C)(C)C(=O)c1c[nH]c2ncc(C3=C(c4ccccc4)CCC3)nc12` belongs 207 to 209 °C; to `Cc1cccc(Br)c1C=O`, 48 to 49 °C.
As to `Cc1ccc(S(=O)(=O)N(C)c2ccc(S(C)(=O)=O)cc2C#N)cc1`, the melting point fell in the range of 179 to 180 °C.
For `CCOC(=O)c1cnn(-c2cc(C)cc(C)c2)c1S(C)(=O)=O`, the melting point was 120 to 122 °C.
The same measure for `CC(C)[C@H](C[C@@H]1OC(C)(C)N(C(=O)OC(C)(C)C)[C@H]1CC1CCCCC1)C(=O)NCCNc1nc(N)n[nH]1`: 99 to 112 °C; for `CCNC(=O)Nc1ccc(C(O)(C(F)(F)F)C(F)(F)F)cc1`: 178 to 179 °C; for `CC1(C)OCC(C(O)CN)O1` (stereo not given): 94 to 96 °C.
Molecule `CC(C)(C)c1cc2c(c(C(C)(C)C)c1)OC(=O)C2=O` registered a melting point of 165 to 168 °C.
To `Cc1c(C(=O)N2Cc3ccccc3Cc3ccccc32)csc1C(N)=O` belongs 201 to 204 °C; to `CCN(CC)C(=O)c1ccc(-c2ccc(-c3ccccc3)c(-c3ccc4c(c3)C(C)(C)CCC4(C)C)c2)cc1`, 113 °C.
Take `Nc1cc(C(F)(F)F)cc2nc3c4ccccc4c4ccccc4c3nc12`: the melting point lay within 194 to 195 °C.
Take `CCOC(=O)C1=C(C)NNC(CC)=C1c1ccco1`: the melting point amounted to 82 °C.
`Cn1c2ccc(Br)cc2c2sccc(=O)c21` showed a melting point of 243 to 244 °C.

By melting point is commonly meant the temperature of the solid-liquid transition.
